Our source for the GI50 and TGI values is PubChem BioAssay (NCI).

Values joined by “and” are separate entries in the source; they are usually repeats but may differ in a detail not shown here. Equal entries are not always repeated.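 Five compound concentrations were applied to cells in 96-well plates for 48 hours; endpoints were derived by simple linear interpolation of the resulting dose-response curve. GI50: concentration for 50% inhibition of growth. TGI: total growth inhibition.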 Where only a bound is given, the exact number is not on record here.

The test system of the experiment is MDA-MB-468 breast. In words: NCI anticancer screen, dose series, 48 h.
Turning to `Cc1[nH]c(=O)nc(Nc2ccc(Cl)cc2)c1C(=O)N1CCN(CCO)CC1`, the GI50 is 34800 nM and the TGI is above 100 µM.

`O1[As]2O[As]3O[As]1O[As](O2)O3`: the GI50 was 216 nM and the TGI was 1.26 µM.

In the case of `CN(C)c1ccc(C(=NO)c2ccc(N(C)C)cc2)cc1`, the GI50 is 716 nM and the TGI stood at 4.43 µM.

On to `Cc1cnc(CNC(=O)c2c(=O)c3ccc(N4CCCN(C)CC4)nc3n3c2sc2ccccc23)cn1`, for which the GI50 is 15700 nM and the TGI is 34.8 µM.

As to `Nc1c(C(=O)c2cccc(C#CCO)c2)cnn1-c1ccc(F)cc1`, the GI50 is above 25000 nM and the TGI was above 25 µM.

As for `CC(C)=CCc1c2c(c(O)c3c1O[C@]14C(=C[C@@H]5C[C@H]1C(C)(C)O[C@@]4(C/C=C(/C)C(=O)O)C5=O)C3=O)CC(O)C(C)(C)O2` (stereo partly specified), the GI50 was 12100 nM and the TGI turned out to be 27.6 µM.

Take `N#CSCc1ccc(Cl)c(CSC#N)c1`: the GI50 was 129 nM and the TGI turned out to be 32.6 µM.

`C=C1CC[C@@H]2[C@](C)(COC(C)=O)[C@H](OC(C)=O)CC[C@@]2(C)[C@@H]1CC(Nc1ccc(S(=O)(=O)Nc2ccc(Cl)nn2)cc1)C1=CCOC1=O` (stereo partly specified): the GI50 was 1320 nM and the TGI came out at 3.37 µM.

On to `O=C1NOC(c2ccc(O)cc2)(c2ccc(O)cc2)c2ccccc21`, for which the GI50 is above 100000 nM and the TGI was above 100 µM.

As to `O=[N+]([O-])c1ccc(N=Nc2ccc(O)c3ccccc23)cc1`, the GI50 is 3260 nM and the TGI worked out at 30.6 µM.

As for `Cn1cc(-c2csc(-c3cn(CCCN4CCCCC4)c4ccccc34)n2)c2cccnc21`, the GI50 was 1870 nM and the TGI stood at 3.74 µM.

Take `O=C1C(SCCO)=C(SCCO)C(=O)N1c1ccc(-c2ccccc2)cc1`: the GI50 was 534 nM and the TGI came to 1.5 µM.

For `COc1ccc(/C=C(\C(=O)NCc2cccnc2)S(=O)(=O)c2ccccc2)cc1OC`, the GI50 was 1570 nM and the TGI was 5.27 µM.

For the molecule `COc1ccc(C2=CC(c3ccc(OC)cc3Br)N3C=CSC3=N2)cc1` (stereo unspecified), the GI50 was 2650 nM and the TGI amounted to 10 µM.

Consider `NC(=O)c1ccc(-c2nc(-c3ccc4c(c3)OCO4)c(-c3ccccn3)[nH]2)cc1`, for which the GI50 was > 25000 nM and 21600 nM; the TGI is > 25 µM and 57 µM.

As to `Cc1nn(-c2ccc([N+](=O)[O-])cc2)c2ncnc(N/N=C/c3ccccc3O)c12`, the GI50 is 1090 nM and the TGI was 3.88 µM.

Turning to `CC(C)(C)c1[nH]nc2c1C(c1cc3ccccc3[nH]c1=O)Nc1cc(C(=O)OCc3ccccc3)ccc1N2` (stereo unspecified), the GI50 was 2460 nM and the TGI stood at 6.74 µM.

Take `O=c1c(O)c(-c2ccc(O)c(O)c2)oc2cc(O)cc(O)c12`: the GI50 was 6670 nM and the TGI was 47.2 µM.

On to `N#Cc1c(NC(=O)c2ccc(F)c(Cl)c2)sc2c1CCC(=O)C2`, for which the GI50 is 387 nM and the TGI worked out at 1.95 µM.

With `CCC[CH2][Sn]1([CH2]CCC)[O]C2C(CO)OC(n3ccc(N)nc3=O)C2[O]1` (stereo unspecified), the GI50 was 471 nM and the TGI turned out to be 2 µM.

For the molecule `NC(=O)Nc1cc(-c2cccc(F)c2)sc1C(=O)N[C@H]1CCCNC1`, the GI50 is 591 nM and 398 nM; the TGI was 2.35 µM and 1.64 µM.

In the case of `COc1ccccc1CNCCCN1C(=O)c2ccc3c4c(ccc(c24)C1=O)C(=O)N(CCCN)C3=O`, the GI50 was 333 nM and the TGI amounted to 1.36 µM.

On to `CC1=C(CCC(C)NCc2ccc(OCCCN3CCCCC3)cc2)C(C)(C)CCC1` (stereo unspecified), for which the GI50 is 1530 nM and the TGI was determined as 3.12 µM.

`Cc1ccc2c(n1)C(=O)C(Cl)=C(Nc1cccc(C(F)(F)F)c1)C2=O`: the GI50 was 1770 nM and the TGI turned out to be 3.66 µM.

On to `Nc1ccccc1C#C/C=C\C#Cc1cccc(O)c1`, for which the GI50 is 1380 nM and the TGI came out at 20.4 µM.

Regarding `Cc1ccc(C(=O)NC2CCC2)cc1-c1ccc(C(=O)NCC2CC2)cc1`, the GI50 is above 17200 nM and the TGI is above 25 µM.

In the case of `[Cl][Ru].c1ccc(-c2cccc(-c3ccccn3)n2)nc1.c1ccc(-c2ccnc3c2ccc2c(-c4ccccc4)ccnc23)cc1`, the GI50 is 1310 nM and the TGI was found to be 3.68 µM.

Turning to `CCN1C(=O)N(CC)C2C1NN=c1s/c(=C\c3ccccn3)c(=O)n12` (stereo unspecified), the GI50 was 523 nM and the TGI was found to be 5.67 µM.

Turning to `COC(=O)C1=C(C)NC(C)=C(C(=O)OCC(C)C)C1c1ccccc1[N+](=O)[O-]` (stereo unspecified), the GI50 was 2830 nM and the TGI came out at 9.63 µM.

Regarding `Cc1ccc(-c2csc(NC(=O)N3CCN(c4cc5c(cc4F)c(=O)c(C(=O)O)cn5C4CC4)CC3)n2)cc1`, the GI50 was 1290 nM and the TGI was determined as 8.17 µM.

Consider `O=C1c2ccc3c4c(ccc(c24)C(=O)N1CCCNCc1ccccc1Cl)C(=O)N(CCCNCc1ccccc1Cl)C3=O`, for which the GI50 is 124 nM and the TGI was 0.352 µM.

Regarding `C#CCNCCN1C(=O)c2ccc3c4c(ccc(c24)C1=O)C(=O)N(CCNCC#C)C3=O`, the GI50 is 2250 nM and the TGI is 10.4 µM.

Turning to `Cc1nn(-c2ccc(Cl)cc2)c2nc3c(nc12)C(=O)C(=O)c1ccccc1-3`, the GI50 is 13900 nM and the TGI is above 100 µM.

With `O=C(Nc1ccc(Oc2cccc(F)c2)c(Cl)c1)c1cnccn1`, the GI50 is 834 nM and the TGI stood at 4.99 µM.

As for `COC(=O)Nc1nc2ccc(Oc3cccc(NC(=O)Nc4cc(C(F)(F)F)ccc4F)c3)cc2[nH]1`, the GI50 was 7870 nM and the TGI was above 23.1 µM.

For the molecule `COc1ccc(C2C(C#N)=C(N)Oc3c2sc2ccc(C)cc32)cc1` (stereo unspecified), the GI50 is 2420 nM and the TGI stood at 9.74 µM.

On to `CCN(CC)c1ccc(/C=N/NC(=O)c2ccc(NS(C)(=O)=O)cc2)cc1`, for which the GI50 is 358 nM and the TGI was 3.81 µM.

Regarding `COC(=O)c1cc2ccccc2c2c3c(ccc12)OCO3`, the GI50 is 48800 nM and the TGI is above 1000 µM.

For the molecule `CCOC(=O)c1cc2c(n1Cc1cc(OC)c(OC)c(OC)c1)-c1oncc1CCC2`, the GI50 is 666 nM and the TGI was above 83.6 µM.

Consider `COc1ccc(CC(=O)c2ccc(O)cc2O)cc1`, for which the GI50 was 56700 nM and the TGI was above 100 µM.

Consider `Cc1nn(C)c(COc2ccc(N3CCN(S(=O)(=O)N(C)C)CC3)cc2)c1-c1cccc2c(CCCOc3cccc4ccccc34)c(C(=O)O)n(CCN3CCOCC3)c12`, for which the GI50 is 1910 nM and the TGI is 5.36 µM.

For `Cc1[nH]c2ccc(F)cc2c1-c1nc2c3cccnc3c3ncccc3c2[nH]1`, the GI50 is 201 nM and the TGI came to 0.787 µM.

As for `COc1cnc2c(c1)C(=O)c1c-2n(CCCNC2=NCCS2)c(=O)c2cc(Cl)ccc12`, the GI50 was 86 nM and the TGI was 2.18 µM.

As to `COc1cc(OC)c(C(=O)/C=C/c2cccc(C#N)c2)c(OC)c1`, the GI50 was 792 nM and the TGI came to 2.46 µM.

As for `Oc1cccc2ccc(-c3nnc(SCc4ccc(O)c5ncccc45)o3)nc12`, the GI50 was 986 nM and the TGI was found to be 8.49 µM.

For the molecule `Cc1ccc(-c2nc3nc(-c4ccccc4)nc(N4CCNCC4)c3o2)cc1`, the GI50 was 310 nM and the TGI was 1.23 µM.

On to `COc1ccc(C(=O)/C=C/c2cccc(Nc3ccnc4cc(Cl)ccc34)c2)cc1`, for which the GI50 was 576 nM and the TGI worked out at 3.38 µM.

For the molecule `CC(C)CCNCC(O)Cn1c2ccccc2c2ccccc21` (stereo unspecified), the GI50 was 1950 nM and the TGI stood at 4.35 µM.

Consider `Nc1ncnc2c1c(-c1ccc(Oc3ccccc3)cc1)nn2C[C@@H]1SSC[C@H]1O`, for which the GI50 is 349 nM and the TGI was 2.61 µM.

On to `Nc1c(C(=O)c2cccc(-c3cccnc3)c2)cnn1-c1ccc(F)cc1F`, for which the GI50 is 2970 nM and the TGI is above 25 µM.

Consider `c1ccc2[nH]c(-c3cc(-c4ccc5c(c4)OCO5)n[nH]3)nc2c1`, for which the GI50 is 3570 nM and the TGI amounted to 17.2 µM.

As for `CC[C@H](CO)Nc1nc(NCc2ccccc2)c2ncn(C(C)C)c2n1`, the GI50 was 15800 nM and the TGI worked out at 33.9 µM.

Regarding `COc1ccc(Cl)c(Nc2nc3ccccc3nc2NS(=O)(=O)c2cccc(NC(=O)C(C)(C)N)c2)c1`, the GI50 is 2630 nM and 1620 nM; the TGI was 14.8 µM and > 10 µM.
